Test: xn = mol fraction of the nth substance listed
Conditions: 101 kPa, Liquid

OCCOCCO [diethylene glycol] + O
Conditions | mass density [kg/m3] | viscosity [mPa·s]
323.15 K, x1 = 0.0255 | 1005.37 | 0.754
323.15 K, x1 = 0.0565 | 1022.33 | 1.031
323.15 K, x1 = 0.1027 | 1041.36 | 1.545
323.15 K, x1 = 0.1966 | 1064.65 | 2.783
323.15 K, x1 = 0.301 | 1077.97 | 4.231
323.15 K, x1 = 0.3989 | 1084.69 | 5.509
323.15 K, x1 = 0.5006 | 1088.85 | 6.694
323.15 K, x1 = 0.6011 | 1091.42 | 7.635
323.15 K, x1 = 0.7003 | 1093.07 | 8.477
323.15 K, x1 = 0.8051 | 1094.21 | 9.115
323.15 K, x1 = 0.892 | 1094.88 | 9.635
323.15 K, x1 = 1 | 1095.51 | 10.03
328.15 K, x1 = 0.0255 | 1002.86 | –
328.15 K, x1 = 0.0565 | 1019.53 | –
328.15 K, x1 = 0.1027 | 1038.21 | –
328.15 K, x1 = 0.1966 | 1061.13 | –
328.15 K, x1 = 0.301 | 1074.29 | –
328.15 K, x1 = 0.3989 | 1080.98 | –
328.15 K, x1 = 0.5006 | 1085.16 | –
328.15 K, x1 = 0.6011 | 1087.74 | –
328.15 K, x1 = 0.7003 | 1089.41 | –
328.15 K, x1 = 0.8051 | 1090.57 | –
328.15 K, x1 = 0.892 | 1091.26 | –
328.15 K, x1 = 1 | 1091.91 | –
333.15 K, x1 = 0.0255 | 1000.22 | 0.62
333.15 K, x1 = 0.0565 | 1016.62 | 0.849
333.15 K, x1 = 0.1027 | 1034.99 | 1.236
333.15 K, x1 = 0.1966 | 1057.55 | 2.147
333.15 K, x1 = 0.301 | 1070.58 | 3.202
333.15 K, x1 = 0.3989 | 1077.25 | 4.103
333.15 K, x1 = 0.5006 | 1081.43 | 4.917
333.15 K, x1 = 0.6011 | 1084.04 | 5.534
333.15 K, x1 = 0.7003 | 1085.74 | 6.12
333.15 K, x1 = 0.8051 | 1086.93 | 6.492
333.15 K, x1 = 0.892 | 1087.63 | 6.874
333.15 K, x1 = 1 | 1088.3 | 7.22
338.15 K, x1 = 0.0255 | 997.46 | –
338.15 K, x1 = 0.0565 | 1013.61 | –
338.15 K, x1 = 0.1027 | 1031.68 | –
338.15 K, x1 = 0.1966 | 1053.92 | –
338.15 K, x1 = 0.301 | 1066.84 | –
338.15 K, x1 = 0.3989 | 1073.49 | –
338.15 K, x1 = 0.5006 | 1077.69 | –
338.15 K, x1 = 0.6011 | 1080.33 | –
338.15 K, x1 = 0.7003 | 1082.06 | –
338.15 K, x1 = 0.8051 | 1083.27 | –
338.15 K, x1 = 0.892 | 1083.99 | –
338.15 K, x1 = 1 | 1084.68 | –
343.15 K, x1 = 0.0255 | 994.57 | 0.527
343.15 K, x1 = 0.0565 | 1010.51 | 0.71
343.15 K, x1 = 0.1027 | 1028.29 | 1.011
343.15 K, x1 = 0.1966 | 1050.24 | 1.703
343.15 K, x1 = 0.301 | 1063.06 | 2.514
343.15 K, x1 = 0.3989 | 1069.69 | 3.15
343.15 K, x1 = 0.5006 | 1073.93 | 3.731
343.15 K, x1 = 0.6011 | 1076.59 | 4.217
343.15 K, x1 = 0.7003 | 1078.36 | 4.617
343.15 K, x1 = 0.8051 | 1079.6 | 4.863
343.15 K, x1 = 0.892 | 1080.34 | 5.121
343.15 K, x1 = 1 | 1081.05 | 5.369
348.15 K, x1 = 0.0255 | 991.57 | –
348.15 K, x1 = 0.0565 | 1007.27 | –
348.15 K, x1 = 0.1027 | 1024.84 | –
348.15 K, x1 = 0.1966 | 1046.51 | –
348.15 K, x1 = 0.301 | 1059.24 | –
348.15 K, x1 = 0.3989 | 1065.88 | –
348.15 K, x1 = 0.5006 | 1070.14 | –
348.15 K, x1 = 0.6011 | 1072.84 | –
348.15 K, x1 = 0.7003 | 1074.63 | –
348.15 K, x1 = 0.8051 | 1075.91 | –
348.15 K, x1 = 0.892 | 1076.67 | –
348.15 K, x1 = 1 | 1077.4 | –
353.15 K, x1 = 0.0255 | 988.5 | 0.465
353.15 K, x1 = 0.0565 | 1004.07 | 0.606
353.15 K, x1 = 0.1027 | 1021.3 | 0.848
353.15 K, x1 = 0.1966 | 1042.72 | 1.392
353.15 K, x1 = 0.301 | 1055.38 | 2.043
353.15 K, x1 = 0.3989 | 1062.02 | 2.502
353.15 K, x1 = 0.5006 | 1066.32 | 2.942
353.15 K, x1 = 0.6011 | 1069.05 | 3.283
353.15 K, x1 = 0.7003 | 1070.89 | 3.593
353.15 K, x1 = 0.8051 | 1072.2 | 3.818
353.15 K, x1 = 0.892 | 1072.99 | 4.024
353.15 K, x1 = 1 | 1073.74 | 4.139
